Results as given in patent US20250195521A1 (Revolution Medicines, Inc., priority 2020, published 2025).

Test system: K-Ras G12C (NCI-H358 cells)
Assay: Potency assay: pERK in NCI-H358 cells
Type: cell-based, human
Conditions: Homo sapiens, NCI-H358, 4 h, read-out: pERK EC50 (H358 KRAS G12C)
Method: The purpose of this assay is to measure the ability of test compounds to inhibit K-Ras in cells. […] This procedure measures a decrease in cellular pERK in response to test compounds. The procedure described below in NCI-H358 cells is applicable to K-Ras G12C.
Note: This protocol may be executed substituting other cell lines to characterize inhibitors of other RAS variants, including, for example, AsPC-1 (K-Ras G12D), Capan-1 (K-Ras G12V), or NCI-H1355 (K-Ras G13C).
NCI-H358 cells were grown and maintained using media and procedures recommended by the ATCC. On the day prior to compound addition, cells were plated in 384-well cell culture plates (40 μl/well) and grown overnight in a 37° C., 5% CO2 incubator. Test compounds were prepared in 10, 3-fold dilutions in DMSO, with a high concentration of 10 mM. On the day of assay, 40 nL of test compound was added to each well of cell culture plate using an Echo550 liquid handler (LabCyte®). Concentrations of test compound were tested in duplicate. After compound addition, cells were incubated 4 hours at 37° C., 5% CO2. Following incubation, culture medium was removed and cells were washed once with phosphate buffered saline.
In some experiments, cellular pERK level was determined using the AlphaLISA SureFire Ultra p-ERK1/2 Assay Kit (PerkinElmer). Cells were lysed in 25 μL lysis buffer, with shaking at 600 RPM at room temperature. […] After a 2-hour incubation in the dark, 5 μL donor mix was added, plate was sealed, and incubated 2 hours at room temperature. Signal was read on an Envision plate reader (PerkinElmer) using standard AlphaLISA settings. Analysis of raw data was carried out in Excel (Microsoft) and Prism (GraphPad). Signal was plotted vs. the decadal logarithm of compound concentration, and IC50 was determined by fitting a 4-parameter sigmoidal concentration response model.
In other experiments, cellular pERK was determined by In-Cell Western. […] Fixed cells were washed 4 times for 5 minutes with TBS containing 0.1% Triton X-100 (TBST) and then blocked with 100 μL Odyssey blocking buffer (LI-COR) for 60 minutes at room temperature. Primary antibody (PERK, CST-4370, Cell Signaling Technology) was diluted 1:200 in blocking buffer, and 50 μL was added to each well and incubated overnight at 4° C. Cells were washed 4 times for 5 minutes with TBST. Secondary antibody (IR-800CW rabbit, LI-COR, diluted 1:800) and DNA stain DRAQ5 (LI-COR, diluted 1:2000) were added and incubated 1-2 hours at room temperature. Cells were washed 4 times for 5 minutes with TBST. Plates were scanned on a Li—COR Odyssey CLx Imager. Analysis of raw data was carried out in Excel (Microsoft) and Prism (GraphPad). Signal was plotted vs. the decadal logarithm of compound concentration, and IC50 was determined by fitting a 4-parameter sigmoidal concentration response model.

| SMILES | EC50 |
| --- | --- |
| C=CC(=O)N1CC[C@H](C(=O)N(C)[C@H](C(=O)N[C@H]2Cc3cc(cc(O)c3F)-c3ccc4c(c3)c(c(-c3c(CCOC)cccc3OC)n4CC)CC(C)(C)COC(=O)[C@@H]3CCCN(N3)C2=O)C(C)C)C1 [Compound A9] | < 5 µM |
| CCn1c(-c2cnccc2COC)c2c3cc(ccc31)-c1cc(O)cc(c1)C[C@H](NC(=O)[C@H](C(C)C)N(C)C(=O)[C@H]1CCN(C(=O)OC)C1)C(=O)N1CCC[C@H](N1)C(=O)OCC(C)(C)C2 [Compound A11, methyl (3S)-3-{[(1S)-1-{[(8S,14S)-22-ethyl-4-hydroxy-21-[4-(methoxymethyl)pyridin-3-yl]-18,18-dimethyl-9,15-dioxo-16-oxa-10,22,28-triazapentacyclo [18.5.2.1^2,6.1^10,14.0^23,27]nonacosa-1 (26),2,4,6 (29),20,23 (27),24-heptaen-8-yl]carbamoyl}-2-methylpropyl](methyl)carbamoyl}pyrrolidine-1-carboxylate] | < 5 µM |
| C=CC(=O)N1CC[C@H](C(=O)N(C)[C@H](C(=O)N[C@H]2Cc3cc(O)cc(c3)-c3ccc4c(c3)c(c(-c3ncccc3[C@@H](C)OC)n4CC)CC(C)(C)COC(=O)[C@@H]3CCCN(N3)C2=O)C(C)C)C1 [Compound A29] | < 5 µM |

Same assay, conditions: Homo sapiens; NCI-H358 cells, 4 hours; read-out: pERK EC50 (H358 KRAS G12C)

| SMILES | EC50 |
| --- | --- |
| CCn1c(-c2cccnc2[C@H](C)OC)c2c3cc(ccc31)-c1cc(O)cc(c1)C[C@H](NC(=O)[C@H](C(C)C)N(C)C(=O)[C@H]1CCC[C@H]1N)C(=O)N1CCC[C@H](N1)C(=O)OCC(C)(C)C2 (atropisomer, axis not shown) [Compound A131] | < 5 µM |
| CCn1c(-c2cccnc2[C@H](C)OC)c2c3cc(ccc31)-c1csc(n1)C[C@H](NC(=O)[C@H](C(C)C)N(C)C(=O)N1CC(C(C)(C)OC)C1)C(=O)N1CCC[C@H](N1)C(=O)OCC(C)(C)C2 (atropisomer, axis not shown) [Compound A614] | < 5 µM |
| CCn1c(-c2cnccc2COC)c2c3cc(ccc31)-c1cc(O)cc(c1)C[C@H](NC(=O)[C@H](C(C)C)N(C)C(=O)[C@H]1CCN(S(=O)(=O)N3CC(N)C3)C1)C(=O)N1CCC[C@H](N1)C(=O)OCC(C)(C)C2 [Compound A35] | < 5 µM |

The next lines start with the values.

| EC50 | SMILES |
| --- | --- |
| < 5 µM | CCn1c(-c2cnccc2COC)c2c3cc(ccc31)-c1cc(O)cc(c1)C[C@H](NC(=O)[C@H](C(C)C)N(C)C(=O)[C@H]1CCNC1)C(=O)N1CCC[C@H](N1)C(=O)OCC(C)(C)C2 [Compound A10] |
| < 5 µM | C=CC(=O)N1CC[C@H](C(=O)N(C)[C@H](C(=O)N[C@H]2Cc3cc(O)cc(c3)-c3ccc4c(c3)c(c(-c3ccccc3CCOC)n4C(C)(C)C#N)CC(C)(C)COC(=O)[C@@H]3CCCN(N3)C2=O)C(C)C)C1 [Compound A12] |
| < 5 µM | CCn1c(-c2cnccc2COC)c2c3cc(ccc31)-c1cc(O)cc(c1)C[C@H](NC(=O)[C@H](C(C)C)N(C)C(=O)[C@H]1CCN(C)C1)C(=O)N1CCC[C@H](N1)C(=O)OCC(C)(C)C2 [Compound A27, (2S)—N-[(8S,14S)-22-ethyl-4-hydroxy-21-[4-(methoxymethyl)pyridin-3-yl]-18,18-dimethyl-9,15-dioxo-16-oxa-10,22,28-triazapentacyclo [18.5.2.1^2,6.1^10,14.0^23,27]nonacosa-1 (26),2,4,6 (29),20,23 (27),24-heptaen-8-yl]-3-methyl-2-{N-methyl-1-[(3S)-1-methylpyrrolidin-3-yl]formamido}butanamide] |
| < 5 µM | CCn1c(-c2cccnc2COC)c2c3cc(ccc31)-c1cc(O)cc(c1)C[C@H](NC(=O)[C@H](C(C)C)N(C)C(=O)[C@H]1CCNC1)C(=O)N1CCC[C@H](N1)C(=O)OCC(C)(C)C2 [Compound A32] |
